Assay results reported in PubChem BioAssay AID1918942 (Molecular Pharmacology Branch, DTP, NCI, 2023).
pIC50: −log10 of the molar value. Where “and” joins values, the source holds several entries; their conditions need not be identical. Identical values can stand only once. Blank lines part the entries; values can stand above or below the molecule they belong to.

System: 743489-274-T-PDC complex spheroid viability
Assay: Anticancer human tumor 743489-274-T-PDC patient-derived renal cell carcinoma cell line growth inhibition
Settings: for viability, T/C: stronger effect = lower value
Outline: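 Complex spheroids of tumor cells with HUVEC and human MSCs, exposed to iadademstat combined with other agents. Each agent tested in half-log steps from near clinical Cmax (else 10 microM top), DMSO ≤0.25%.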

[1] = curve of first compound, second compound 0.1 µM
[2] = curve of first compound, second compound 0.316 µM
[3] = curve of first compound, second compound 1 µM
[4] = curve of first compound, second compound 3.16 µM
[5] = curve of first compound, second compound 10 µM
[6] = second compound 0.1 µM, first compound 0.00949 µM
[7] = second compound 0.1 µM, first compound 0.03 µM
[8] = second compound 0.1 µM, first compound 0.0949 µM
[9] = second compound 0.1 µM, first compound 0.3 µM
[10] = second compound 0.316 µM, first compound 0.00949 µM
[11] = second compound 0.316 µM, first compound 0.03 µM
[12] = second compound 0.316 µM, first compound 0.0949 µM
[13] = second compound 0.316 µM, first compound 0.3 µM
[14] = second compound 1 µM, first compound 0.00949 µM
[15] = second compound 1 µM, first compound 0.03 µM
[16] = second compound 1 µM, first compound 0.0949 µM
[17] = second compound 1 µM, first compound 0.3 µM
[18] = second compound 3.16 µM, first compound 0.00949 µM
[19] = second compound 3.16 µM, first compound 0.03 µM
[20] = second compound 3.16 µM, first compound 0.0949 µM
[21] = second compound 3.16 µM, first compound 0.3 µM
[22] = second compound 10 µM, first compound 0.00949 µM
[23] = second compound 10 µM, first compound 0.03 µM
[24] = second compound 10 µM, first compound 0.0949 µM
[25] = second compound 10 µM, first compound 0.3 µM
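Note: spheroids exposed to compounds for 7 days before readout.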
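Throughout, for viability, T/C: 100% = DMSO vehicle control wells.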

SMILES: Nc1ccn(C2OC(CO)C(O)C2(F)F)c(=O)n1 (configuration not stated) + NC1CC1c1ccc(-c2cccc(O)c2)cc1
- pIC50 [1]: < 6.52
- pIC50 [2]: 7.33
- pIC50 [3]: 6.82
- pIC50 [4]: 7.59
- pIC50 [5]: 6.96
- viability, T/C (second compound 0.1 µM, first compound 0.000949 µM): 62.5%
- viability, T/C (second compound 0.1 µM, first compound 0.003 µM): 58.5%
- viability, T/C [6]: 95.2%
- viability, T/C [7]: 58%
- viability, T/C [8]: 63.7%
- viability, T/C [9]: 48.5%
- viability, T/C (second compound 0.316 µM, first compound 0.000949 µM): 67.2%
- viability, T/C (second compound 0.316 µM, first compound 0.003 µM): 56.3%
- viability, T/C [10]: 99.8%
- viability, T/C [11]: 51.4%
- viability, T/C [12]: 51.2%
- viability, T/C [13]: 44.2%
- viability, T/C (second compound 1 µM, first compound 0.000949 µM): 57.1%
- viability, T/C (second compound 1 µM, first compound 0.003 µM): 51.7%
- viability, T/C [14]: 87%
- viability, T/C [15]: 53.9%
- viability, T/C [16]: 46.5%
- viability, T/C [17]: 47.1%
- viability, T/C (second compound 3.16 µM, first compound 0.000949 µM): 58.4%
- viability, T/C (second compound 3.16 µM, first compound 0.003 µM): 62.2%
- viability, T/C [18]: 97.8%
- viability, T/C [19]: 46.3%
- viability, T/C [20]: 44%
- viability, T/C [21]: 48.4%
- viability, T/C (second compound 10 µM, first compound 0.000949 µM): 64.9%
- viability, T/C (second compound 10 µM, first compound 0.003 µM): 51.4%
- viability, T/C [22]: 87.2%
- viability, T/C [23]: 47.6%
- viability, T/C [24]: 46.2%
- viability, T/C [25]: 44.9%

SMILES: CC(C)CC(NC(=O)C(Cc1ccccc1)NC(=O)c1cnccn1)B(O)O (configuration not stated) + NC1CCC(NC2CC2c2ccccc2)CC1
- pIC50 [1]: 8.12
- pIC50 [2]: 8.10
- pIC50 [3]: 8.13
- pIC50 [4]: 8.07
- pIC50 [5]: 8.09
- viability, T/C (second compound 0.1 µM, first compound 0.000316 µM): 115%
- viability, T/C (second compound 0.1 µM, first compound 0.001 µM): 100%
- viability, T/C (second compound 0.1 µM, first compound 0.00316 µM): 121%
- viability, T/C (second compound 0.1 µM, first compound 0.01 µM): 33.7%
- viability, T/C (second compound 0.1 µM, first compound 0.0316 µM): 29.6%
- viability, T/C (second compound 0.1 µM, first compound 0.1 µM): 30.3%
- viability, T/C (second compound 0.316 µM, first compound 0.000316 µM): 119%
- viability, T/C (second compound 0.316 µM, first compound 0.001 µM): 109%
- viability, T/C (second compound 0.316 µM, first compound 0.00316 µM): 115%
- viability, T/C (second compound 0.316 µM, first compound 0.01 µM): 33.4%
- viability, T/C (second compound 0.316 µM, first compound 0.0316 µM): 19.1%
- viability, T/C (second compound 0.316 µM, first compound 0.1 µM): 26.7%
- viability, T/C (second compound 1 µM, first compound 0.000316 µM): 100%
- viability, T/C (second compound 1 µM, first compound 0.001 µM): 108%
- viability, T/C (second compound 1 µM, first compound 0.00316 µM): 113%
- viability, T/C (second compound 1 µM, first compound 0.01 µM): 36.8%
- viability, T/C (second compound 1 µM, first compound 0.0316 µM): 23.7%
- viability, T/C (second compound 1 µM, first compound 0.1 µM): 28.1%
- viability, T/C (second compound 3.16 µM, first compound 0.000316 µM): 122%
- viability, T/C (second compound 3.16 µM, first compound 0.001 µM): 103%
- viability, T/C (second compound 3.16 µM, first compound 0.00316 µM): 113%
- viability, T/C (second compound 3.16 µM, first compound 0.01 µM): 40.3%
- viability, T/C (second compound 3.16 µM, first compound 0.0316 µM): 22.3%
- viability, T/C (second compound 3.16 µM, first compound 0.1 µM): 38.3%
- viability, T/C (second compound 10 µM, first compound 0.000316 µM): 117%
- viability, T/C (second compound 10 µM, first compound 0.001 µM): 119%
- viability, T/C (second compound 10 µM, first compound 0.00316 µM): 123%
- viability, T/C (second compound 10 µM, first compound 0.01 µM): 35.8%
- viability, T/C (second compound 10 µM, first compound 0.0316 µM): 22.1%
- viability, T/C (second compound 10 µM, first compound 0.1 µM): 35.5%

SMILES: COc1cc(C2c3cc4c(cc3C(OC3OC5COC(C)OC5C(O)C3O)C3COC(=O)C23)OCO4)cc(OC)c1O (configuration not stated) + NC1CCC(NC2CC2c2ccccc2)CC1
- pIC50 [1]: < 5.52
- pIC50 [2]: < 5.52
- pIC50 [3]: < 5.52
- pIC50 [4]: < 5.52
- pIC50 [5]: < 5.52
- viability, T/C [6]: 108%
- viability, T/C [7]: 119%
- viability, T/C [8]: 112%
- viability, T/C [9]: 96.6%
- viability, T/C (second compound 0.1 µM, first compound 0.949 µM): 106%
- viability, T/C (second compound 0.1 µM, first compound 3 µM): 85.7%
- viability, T/C [10]: 105%
- viability, T/C [11]: 105%
- viability, T/C [12]: 97.8%
- viability, T/C [13]: 94.8%
- viability, T/C (second compound 0.316 µM, first compound 0.949 µM): 91.7%
- viability, T/C (second compound 0.316 µM, first compound 3 µM): 95.3%
- viability, T/C [14]: 118%
- viability, T/C [15]: 121%
- viability, T/C [16]: 117%
- viability, T/C [17]: 110%
- viability, T/C (second compound 1 µM, first compound 0.949 µM): 93.2%
- viability, T/C (second compound 1 µM, first compound 3 µM): 97.9%
- viability, T/C [18]: 125%
- viability, T/C [19]: 113%
- viability, T/C [20]: 115%
- viability, T/C [21]: 110%
- viability, T/C (second compound 3.16 µM, first compound 0.949 µM): 99%
- viability, T/C (second compound 3.16 µM, first compound 3 µM): 87.9%
- viability, T/C [22]: 117%
- viability, T/C [23]: 115%
- viability, T/C [24]: 112%
- viability, T/C [25]: 111%
- viability, T/C (second compound 10 µM, first compound 0.949 µM): 98.6%
- viability, T/C (second compound 10 µM, first compound 3 µM): 111%

- pIC50 (curve of compound): < 5.52
SMILES: COc1cc(C2c3cc4c(cc3C(OC3OC5COC(C)OC5C(O)C3O)C3COC(=O)C23)OCO4)cc(OC)c1O (configuration not stated)
- viability, T/C (compound 0.00949 µM): 98.2% and 111%
- viability, T/C (compound 0.03 µM): 114% and 112%
- viability, T/C (compound 0.0949 µM): 70.3% and 81.1%
- viability, T/C (compound 0.3 µM): 92.8% and 99.4%
- viability, T/C (compound 0.949 µM): 98.9% and 88.8%
- viability, T/C (compound 3 µM): 82% and 91.5%
